# Earlier results as cited in US20250369985A1, “METHOD FOR DETERMINING THE THERAPEUTIC REGIMEN FOR AN INDIVIDUAL AND ITS USE” (MOSAIQUES DIAGNOSTICS AND THERAPEUTICS AG, priority 2022, published 2025).
# Where two headings read alike, the source gives them in different places.
# Test system: urinary proteins/peptides (71 biomarkers of CD71 classifier)
# [1] = peptide 99900220 (Seq. ID No. 1)
# [2] = peptide 99900467 (Seq. ID No. 2)
# [3] = peptide 99901399 (Seq. ID No. 3)
# [4] = peptide 99902592 (Seq. ID No. 4)
# [5] = peptide 99903025 (Seq. ID No. 5)
# [6] = peptide 99904405 (Seq. ID No. 6)
# [7] = peptide 99904666 (Seq. ID No. 7)
# [8] = peptide 99904862 (Seq. ID No. 8)
# [9] = peptide 99905044 (Seq. ID No. 9)
# [10] = peptide 99905259 (Seq. ID No. 10)
# [11] = peptide 99905274 (Seq. ID No. 11)
# [12] = peptide 99905379 (Seq. ID No. 12)
# [13] = peptide 99905423 (Seq. ID No. 13)
# [14] = peptide 99905509 (Seq. ID No. 14)
# [15] = peptide 99905551 (Seq. ID No. 15)
# [16] = peptide 99906176 (Seq. ID No. 16)
# [17] = peptide 99907275 (Seq. ID No. 17)
# [18] = peptide 99907807 (Seq. ID No. 18)
# [19] = peptide 99908755 (Seq. ID No. 19)
# [20] = peptide 99908795 (Seq. ID No. 20)
# [21] = peptide 99908916 (Seq. ID No. 21)
# [22] = peptide 99909059 (Seq. ID No. 22)
# [23] = peptide 99910002 (Seq. ID No. 23)
# [24] = peptide 99910032 (Seq. ID No. 24)
# [25] = peptide 99910407 (Seq. ID No. 25)
# [26] = peptide 99910483 (Seq. ID No. 26)
# [27] = peptide 99910554 (Seq. ID No. 27)
# [28] = peptide 99910883 (Seq. ID No. 28)
# [29] = peptide 99911002 (Seq. ID No. 29)
# [30] = peptide 99911193 (Seq. ID No. 30)
# [31] = peptide 99911415 (Seq. ID No. 31)
# [32] = peptide 99911559 (Seq. ID No. 32)
# [33] = peptide 99911777 (Seq. ID No. 33)
# [34] = peptide 99912101 (Seq. ID No. 34)
# [35] = peptide 99912211 (Seq. ID No. 35)
# [36] = peptide 99912366 (Seq. ID No. 36)
# [37] = peptide 99912411 (Seq. ID No. 37)
# [38] = peptide 99912661 (Seq. ID No. 38)
# [39] = peptide 99913200 (Seq. ID No. 39)
# [40] = peptide 99913322 (Seq. ID No. 40)
# [41] = peptide 99913825 (Seq. ID No. 41)
# [42] = peptide 99914211 (Seq. ID No. 42)
# [43] = peptide 99914445 (Seq. ID No. 43)
# [44] = peptide 99914876 (Seq. ID No. 44)
# [45] = peptide 99914887 (Seq. ID No. 45)
# [46] = peptide 99914893 (Seq. ID No. 46)
# [47] = peptide 99914935 (Seq. ID No. 47)
# [48] = peptide 99915015 (Seq. ID No. 48)
# [49] = peptide 99915755 (Seq. ID No. 49)
# [50] = peptide 99915778 (Seq. ID No. 50)
# [51] = peptide 99915883 (Seq. ID No. 51)
# [52] = peptide 99916170 (Seq. ID No. 52)
# [53] = peptide 99916177 (Seq. ID No. 53)
# [54] = peptide 99916611 (Seq. ID No. 54)
# [55] = peptide 99916615 (Seq. ID No. 55)
# [56] = peptide 99916966 (Seq. ID No. 56)
# [57] = peptide 99917047 (Seq. ID No. 57)
# [58] = peptide 99917221 (Seq. ID No. 58)
# [59] = peptide 99917280 (Seq. ID No. 59)
# [60] = peptide 99917288 (Seq. ID No. 60)
# [61] = peptide 99917419 (Seq. ID No. 61)
# [62] = peptide 99917505 (Seq. ID No. 62)
# [63] = peptide 99917596 (Seq. ID No. 63)
# [64] = peptide 99917626 (Seq. ID No. 64)
# [65] = peptide 99917690 (Seq. ID No. 65)
# [66] = peptide 99917825 (Seq. ID No. 66)
# [67] = peptide 99917890 (Seq. ID No. 67)
# [68] = peptide 99917947 (Seq. ID No. 68)
# [69] = peptide 99918831 (Seq. ID No. 69)
# [70] = peptide 99918906 (Seq. ID No. 70)
# [71] = peptide 99918909 (Seq. ID No. 71)
smiles,measurement,setting,value
CCOc1nc2cccc(C(=O)O)c2n1Cc1ccc(-c2ccccc2-c2nnn[nH]2)cc1 [drug A],f (fold-change of the abundance),[1],1
same,f (fold-change of the abundance),[2],1
same,f (fold-change of the abundance),[3],1
same,f (fold-change of the abundance),[4],1
same,f (fold-change of the abundance),[5],1
same,f (fold-change of the abundance),[6],1
same,f (fold-change of the abundance),[7],1
same,f (fold-change of the abundance),[8],1.4
same,f (fold-change of the abundance),[9],1
same,f (fold-change of the abundance),[10],1.5
same,f (fold-change of the abundance),[11],1
same,f (fold-change of the abundance),[12],1
same,f (fold-change of the abundance),[13],1.15
same,f (fold-change of the abundance),[14],1
same,f (fold-change of the abundance),[15],1
same,f (fold-change of the abundance),[16],1.47
same,f (fold-change of the abundance),[17],1
same,f (fold-change of the abundance),[18],1
same,f (fold-change of the abundance),[19],1
same,f (fold-change of the abundance),[20],1.49
same,f (fold-change of the abundance),[21],1
same,f (fold-change of the abundance),[22],0.65
same,f (fold-change of the abundance),[23],1
same,f (fold-change of the abundance),[24],1
same,f (fold-change of the abundance),[25],1
same,f (fold-change of the abundance),[26],1
same,f (fold-change of the abundance),[27],1
same,f (fold-change of the abundance),[28],0.81
same,f (fold-change of the abundance),[29],1
same,f (fold-change of the abundance),[30],1.26
same,f (fold-change of the abundance),[31],1
same,f (fold-change of the abundance),[32],1
same,f (fold-change of the abundance),[33],1
same,f (fold-change of the abundance),[34],1
same,f (fold-change of the abundance),[35],1.78
same,f (fold-change of the abundance),[36],1
same,f (fold-change of the abundance),[37],1
same,f (fold-change of the abundance),[38],1
same,f (fold-change of the abundance),[39],1
same,f (fold-change of the abundance),[40],1
same,f (fold-change of the abundance),[41],0.68
same,f (fold-change of the abundance),[42],1
same,f (fold-change of the abundance),[43],1
same,f (fold-change of the abundance),[44],1
same,f (fold-change of the abundance),[45],1
same,f (fold-change of the abundance),[46],0.67
same,f (fold-change of the abundance),[47],1
same,f (fold-change of the abundance),[48],1.83
same,f (fold-change of the abundance),[49],0.67
same,f (fold-change of the abundance),[50],1
same,f (fold-change of the abundance),[51],1
same,f (fold-change of the abundance),[52],1.27
same,f (fold-change of the abundance),[53],1
same,f (fold-change of the abundance),[54],1
same,f (fold-change of the abundance),[55],1
same,f (fold-change of the abundance),[56],1
same,f (fold-change of the abundance),[57],0.64
same,f (fold-change of the abundance),[58],0.74
same,f (fold-change of the abundance),[59],1
same,f (fold-change of the abundance),[60],1
same,f (fold-change of the abundance),[61],1
same,f (fold-change of the abundance),[62],1
same,f (fold-change of the abundance),[63],1
same,f (fold-change of the abundance),[64],1
same,f (fold-change of the abundance),[65],1
same,f (fold-change of the abundance),[66],1
same,f (fold-change of the abundance),[67],1
same,f (fold-change of the abundance),[68],1
same,f (fold-change of the abundance),[69],1
same,f (fold-change of the abundance),[70],1
same,f (fold-change of the abundance),[71],1
"CC(=O)S[C@@H]1CC2=CC(=O)CC[C@]2(C)[C@H]2CC[C@@]3(C)[C@@H](CC[C@@]34CCC(=O)O4)[C@H]12 [drug B, Spironolactone]",f (fold-change of the abundance),[1],1
same,f (fold-change of the abundance),[2],1
same,f (fold-change of the abundance),[3],1
same,f (fold-change of the abundance),[4],1
same,f (fold-change of the abundance),[5],1
same,f (fold-change of the abundance),[6],1
same,f (fold-change of the abundance),[7],1
same,f (fold-change of the abundance),[8],1
same,f (fold-change of the abundance),[9],1
same,f (fold-change of the abundance),[10],1
same,f (fold-change of the abundance),[11],1
same,f (fold-change of the abundance),[12],1
same,f (fold-change of the abundance),[13],1
same,f (fold-change of the abundance),[14],0.77
same,f (fold-change of the abundance),[15],1.97
same,f (fold-change of the abundance),[16],1
same,f (fold-change of the abundance),[17],1
same,f (fold-change of the abundance),[18],1
same,f (fold-change of the abundance),[19],1
same,f (fold-change of the abundance),[20],1
same,f (fold-change of the abundance),[21],1
same,f (fold-change of the abundance),[22],1
same,f (fold-change of the abundance),[23],1
same,f (fold-change of the abundance),[24],1
same,f (fold-change of the abundance),[25],1
same,f (fold-change of the abundance),[26],0.78
same,f (fold-change of the abundance),[27],1
same,f (fold-change of the abundance),[28],1
same,f (fold-change of the abundance),[29],1
same,f (fold-change of the abundance),[30],1
same,f (fold-change of the abundance),[31],1
same,f (fold-change of the abundance),[32],1
same,f (fold-change of the abundance),[33],1
same,f (fold-change of the abundance),[34],1
same,f (fold-change of the abundance),[35],1
same,f (fold-change of the abundance),[36],1.5
same,f (fold-change of the abundance),[37],1
same,f (fold-change of the abundance),[38],1
same,f (fold-change of the abundance),[39],1.21
same,f (fold-change of the abundance),[40],1
same,f (fold-change of the abundance),[41],0.65
same,f (fold-change of the abundance),[42],1
same,f (fold-change of the abundance),[43],1
same,f (fold-change of the abundance),[44],1.5
same,f (fold-change of the abundance),[45],1
same,f (fold-change of the abundance),[46],1
same,f (fold-change of the abundance),[47],0.72
same,f (fold-change of the abundance),[48],1
same,f (fold-change of the abundance),[49],1
same,f (fold-change of the abundance),[50],1
same,f (fold-change of the abundance),[51],1
same,f (fold-change of the abundance),[52],1
same,f (fold-change of the abundance),[53],1.88
same,f (fold-change of the abundance),[54],1
same,f (fold-change of the abundance),[55],1
same,f (fold-change of the abundance),[56],1
same,f (fold-change of the abundance),[57],0.82
same,f (fold-change of the abundance),[58],1
same,f (fold-change of the abundance),[59],1
same,f (fold-change of the abundance),[60],1
same,f (fold-change of the abundance),[61],1
same,f (fold-change of the abundance),[62],1
same,f (fold-change of the abundance),[63],1
same,f (fold-change of the abundance),[64],1
same,f (fold-change of the abundance),[65],1
same,f (fold-change of the abundance),[66],1
same,f (fold-change of the abundance),[67],1
same,f (fold-change of the abundance),[68],1
same,f (fold-change of the abundance),[69],1.27
same,f (fold-change of the abundance),[70],1
same,f (fold-change of the abundance),[71],0.62
